Experimental data: patent publication US9340513B2, “Propenoate derivatives of betulin” (GlaxoSmithKline LLC, priority 2011, dated 2016)

Tested on: HIV-1 (strain IIIB)
Assay: MT4 Cell Antiviral Assay
Assay type: cell-based
Settings: Human immunodeficiency virus 1, 120 h; HIV-1 strain IIIB in MT4 cells, 5 days, Cell Titer-Glo; 50% decrease in HIV-induced cytopathic effect
Protocol: Antiviral HIV activity and compound-induced cytotoxicity were measured in parallel based on a modified protocol of the propidium iodide based procedure in the human T-cell lymphotropic virus transformed cell line MT4. Aliquots of the test compounds were serially diluted in DMSO plated in 96-well plates. Exponentially growing MT4 cells were harvested and pelleted. Cell pellets were resuspended in fresh medium (RPMI 1640, 10% FCS, and gentamycin. Cell aliquots were infected by the addition of HIV-1 (strain IIIB) diluted to give a viral multiplicity of infection of 300×TCID50/million cells. A similar cell aliquot was diluted with medium to provide a mock-infected control. Cell infection was allowed to proceed for 1 hr at 37° C. in a tissue culture incubator with humidified 5% CO2 atmosphere. After the 1 hr incubation the virus/cell suspensions were diluted with fresh medium, and added to each well of the plate containing pre-diluted compound. Plates were then placed in a tissue culture incubator with humidified 5% CO2 for 5 days. […] The plates were analyzed in an automated plate reader for luminescence.assay. The control and standard used was efavirinz tested over a concentration range of 0.001 to 1 μM in every assay. The expected range of IC50 values for efavirinz is 0.1 to 1 nM.
The antiviral effect of a test compound is reported as an IC50, i.e. the inhibitory concentration that would produce a 50% decrease in the HIV-induced cytopathic effect. This effect is measured by the amount of test compound required to restore 50% of the cell growth of HIV-infected MT4 cells, compared to uninfected MT4 cell controls. IC50 was calculated by RoboSage, Automated Curve Fitting Program.
For each assay plate, the results (of wells containing uninfected cells or infected cells with no compound were averaged, respectively. For measurements of compound-induced cytotoxicty, results from wells containing various compound concentrations and uninfected cells were compared to the average of uninfected cells without compound treatment. Percent of cells remaining is determined by the following formula: Percent of cells remaining=(compound-treated uninfected cells/untreated uninfected cells)×100.
A level of percent of cells remaining of 79% or less indicates a significant level of direct compound-induced cytotoxicity for the compound at that concentration. When this condition occurs the results from the compound-treated infected wells at this concentration are not included in the calculation of IC50.
For measurements of compound antiviral activity, results from wells containing various compound concentrations and infected cells are compared to the average of uninfected and infected cells without compound treatment. Percent inhibition of virus is determined by the following formula: Percent inhibition of virus=(1−((ave. untreated uninfected cells−treated infected cells)/(ave. untreated uninfected cells−ave. untreated infected cells)))×100

Compound	IC50 [nM]
CC(C)C1=C2[C@H]3CC[C@@H]4[C@@]5(C)CC[C@H](OC(=O)CC(C)(C)C(=O)O)C(C)(C)[C@@H]5CC[C@@]4(C)[C@]3(C)CC[C@@]2(/C=C/C(=O)NC2(c3cccc(Cl)c3)CC2)CC1=O [Example 24, 4-(((3aS,5aR,5bR,7aR,9S,11aR,11bR,13aS)-3a-((E)-3-((1-(3-Chlorophenyl)cyclopropyl)amino)-3-oxoprop-1-en-1-yl)-1-isopropyl-5a,5b,8,8,11a-pentamethyl-2-oxo-3,3a,4,5,5a,5b,6,7,7a,8,9,10,11,11a,11b,12,13,13a-octadecahydro-2H-cyclopenta[a]chrysen-9-yl)oxy)-2,2-dimethyl-4-oxobutanoic acid]	< 10
CC(C)C1=C2[C@H]3CC[C@@H]4[C@@]5(C)CC[C@H](OC(=O)CC(C)(C)C(=O)O)C(C)(C)[C@@H]5CC[C@@]4(C)[C@]3(C)CC[C@@]2(/C=C/C(=O)N[C@@H](C)c2ccccc2Cl)CC1=O [Example 25, 4-(((3aS,5aR,5bR,7aR,9S,11aR,11bR,13aS)-3a-((E)-3-(((S)-1-(2-Chlorophenyl)ethyl)amino)-3-oxoprop-1-en-1-yl)-1-isopropyl-5a,5b,8,8,11a-pentamethyl-2-oxo-3,3a,4,5,5a,5b,6,7,7a,8,9,10,11,11a,11b,12,13,13a-octadecahydro-2H-cyclopenta[a]chrysen-9-yl)oxy)-2,2-dimethyl-4-oxobutanoic acid]	10 to 250
CC(C)C1=C2[C@H]3CC[C@@H]4[C@@]5(C)CC[C@H](OC(=O)CC(C)(C)C(=O)O)C(C)(C)[C@@H]5CC[C@@]4(C)[C@]3(C)CC[C@@]2(/C=C/C(=O)NC2(c3ncc(Cl)cn3)CC2)CC1=O [Example 26, 4-(((3aS,5aR,5bR,7aR,9S,11aR,11bR,13aS)-3a-((E)-3-((1-(5-Chloropyrimidin-2-yl)cyclopropyl)amino)-3-oxoprop-1-en-1-yl)-1-isopropyl-5a,5b,8,8,11a-pentamethyl-2-oxo-3,3a,4,5,5a,5b,6,7,7a,8,9,10,11,11a,11b,12,13,13a-octadecahydro-2H-cyclopenta[a]chrysen-9-yl)oxy)-2,2-dimethyl-4-oxobutanoic acid]	< 10
C/C(=C\[C@@]12CC[C@]3(C)[C@H](CC[C@@H]4[C@@]5(C)CC[C@H](OC(=O)CC(C)(C)C(=O)O)C(C)(C)[C@@H]5CC[C@]43C)C1=C(C(C)C)C(=O)C2)C(=O)NC1(c2ccc(Cl)cc2)CC1 [Example 27, 4-(((3aS,5aR,5bR,7aR,9S,11aR,11bR,13aS)-3a-((E)-3-((1-(4-Chlorophenyl)cyclopropyl)amino)-2-methyl-3-oxoprop-1-en-1-yl)-1-isopropyl-5a,5b,8,8,11a-pentamethyl-2-oxo-3,3a,4,5,5a,5b,6,7,7a,8,9,10,11,11a,11b,12,13,13a-octadecahydro-2H-cyclopenta[a]chrysen-9-yl)oxy)-2,2-dimethyl-4-oxobutanoic acid]	< 10
C/C(=C\[C@@]12CC[C@]3(C)[C@H](CC[C@@H]4[C@@]5(C)CC[C@H](OC(=O)CC(C)(C)C(=O)O)C(C)(C)[C@@H]5CC[C@]43C)C1=C(C(C)C)C(=O)C2)C(=O)NC1(c2ncc(Cl)cn2)CC1 [Example 28, 4-(((3aS,5aR,5bR,7aR,9S,11aR,11bR,13aS)-3a-((E)-3-((1-(5-Chloropyrimidin-2-yl)cyclopropyl)amino)-2-methyl-3-oxoprop-1-en-1-yl)-1-isopropyl-5a,5b,8,8,11a-pentamethyl-2-oxo-3,3a,4,5,5a,5b,6,7,7a,8,9,10,11,11a,11b,12,13,13a-octadecahydro-2H-cyclopenta[a]chrysen-9-yl)oxy)-2,2-dimethyl-4-oxobutanoic acid]	< 10
